From patent US8093430B2, “Methods of inhibiting ethylene responses in plants using cyclopropene amine compounds” (North Carolina State University, priority 2007, dated 2012)
Read-outs that look alike come from different tables or passages of the source.

Tests used:
bananas [1] = assay: Minimum amount of cyclopropene as a gas required to protect bananas from ethylene; assay type: in vivo, Musa paradisiaca L
Experimental: Untreated mature green bananas (Musa paradisiaca L) from Costa Rica which were ready for market were obtained from the local Farmers Market and were kept at 14.5° C. until use. Bananas were used within 24 hours of arrival. Experiments were conducted at approximately 22-23° C. No damaged fruit were used in the experiments. […] The jars were then vented and ethylene was injected and allowed to stand for a minimum of 15 hours and then allowed to stand at 23° C. until ethylene responses developed. For gaseous phase treatment, the compound is applied to bananas by pipetting solution onto filter paper. Filter paper is used to increase surface area in a 3 L jar. The jar is sealed for 24 hours to give enough time to diffuse through plant tissue to the ethylene binding sites. 333 ul/L of ethylene gas is added to the jars. The jars are then resealed for 15 hours. This allows for maximal exposure to ethylene to measure effectiveness of the compounds. Firmness was recorded over a number of days. Disappearance of chlorophyll was determined by extracting chlorophyll from banana peels. Absorbance was measured in a spectrometer. The minimum amount of cyclopropene necessary to protect bananas from ethylene was determined after the bananas had been exposed to the compound for 24 hours. Following this time, the fruits were vented for 10 minutes and then exposed to 333 ? l^-I of ethylene gas treatment. This has been the procedure for most other studies involving cyclopropene compounds and bananas. This time was used so that a reasonable comparison could be made with previous work ([…]. et al. 1996 a; 1996b; 1999; 2001; 2003). (See […]., et al., Effect of 1-methylcyclopropene, and methylenecyclopropene on ethylene binding and ethylene action in cut carnations, Plant Growth Reg., 18, 79-86, (1996a); […]., et al., The effect of chemical structure on the antagonism by cyclopropenes of ethylene responses in banana, Plant Growth Reg., 33, 107-110 (2001); […]., et al., 1-Substituted cyclopropenes: Effective blocking agents for ethylene action in plants, Plant Growth Reg. 40, 221-228 (2003)).

bananas [2] = assay: Time of protection of bananas against ethylene; assay type: in vivo, Musa paradisiaca L
Experimental: Untreated mature green bananas (Musa paradisiaca L) from Costa Rica which were ready for market were obtained from the local Farmers Market and were kept at 14.5° C. until use. Bananas were used within 24 hours of arrival. Experiments were conducted at approximately 22-23° C. No damaged fruit were used in the experiments. Bananas were treated to an amount of compound believed to saturate the receptor sites (10 times the minimum amount for protection). The bananas were exposed for 24 hours then vented. They were kept on a laboratory bench and each day a sample was exposed to ethylene. The day the bananas were treated with ethylene and the day the bananas turned yellow and became soft were recorded. Generally, this observation occurred about 3 days after the ethylene treatment day. The treatment day the bananas first ripened was considered to be the time of protection.

Petunia hybridia = assay: Protection of petunia flowers against ethylene; assay type: in vivo; conditions: 100 nl, gas or carbonate salt form, ethylene 24 hours, at 5 days, FIG. 8
Experimental: FIG. 8. Protection of flowers (Petunia hybridia) by N,N-dipropyl(1-cyclopropenylmethyl)amine (100 nl) as a gas or as the carbonate salt. Treatment included check (control), ethylene, gas form, salt form of N,N-dipropyl(1-cyclopropenylmethyl)amine, from left to right. All except check were subjected to ethylene for 24 hours.
In experiments to study effects of the compounds described herein on the ethylene response in flowering plants, the petunia (Petunia hybridia), a well known ethylene sensitive flower, and the dandelion (Krigia dandelion) were used in the experiments.
FIGS. 7 and 8 present the results of using 100 nl N,N-dipropyl(1-cyclopropenylmethyl)amine on dandelions and petunias, respectively. The Krigia dandelion is commonly known as a weed that can be found along roads during particular times of the year such as spring and summer. It is of interest because ethylene can cause the plant to become dormant and, as a defense mechanism, the plant can become dormant when there is drought. […] The petunia is a well-known ethylene sensitive flower.

banana peel = assay: Protection of chlorophyll in banana peel by compound applied as salt (swab) or gas, then ethylene; assay type: in vivo, Musa paradisiaca L
Experimental: Untreated mature green bananas (Musa paradisiaca L) from Costa Rica which were ready for market were obtained from the local Farmers Market and were kept at 14.5° C. until use. Bananas were used within 24 hours of arrival. Experiments were conducted at approximately 22-23° C. No damaged fruit were used in the experiments. […] The jars were then vented and ethylene was injected and allowed to stand for a minimum of 15 hours and then allowed to stand at 23° C. until ethylene responses developed. When the effect of the respective salts of the cyclopropenes were assayed, the salt was mixed with the desired amount of water containing Tween 20 as a wetting agent and the acid. Usually 200 μl of water, 20 μl of Tween 20 and 100 μl of 0.1 M acid and the compound dissolved in ether were used. These salts were applied to the banana. The peels were swabbed to spread the mixture and increase the exposed surface area. The bananas were placed in an unsealed 3-liter jar and allowed to stand 24 hours. In the case of the carbonate salt, the compound was exposed to carbon dioxide in water long enough for the salt to form. In this case, the carbonate salt was formed by mixing the compound dissolved in water with CO2. The concentration of CO2 in water at 1 atmosphere and 25° C. is reported to be 0.0338 M (Daniels and Alberty 1955) (See Daniels, F, et al., Physical Chemistry, John Wiley and Sons New York, 200 (1955). […] (See Cotton, et al., Advanced Inorganic Chemistry John Wiley and Sons. New York, 152 (1999). At the end of 24 hours, ethylene was injected and the jars were sealed. After 15 hours exposure, the bananas were removed and observed for several days for the effect of ethylene. An untreated check banana and a similar untreated banana treated with ethylene only were included in each experiment for comparison. For gaseous phase treatment, the compound is applied to bananas by pipetting solution onto filter paper. Filter paper is used to increase surface area in a 3 L jar. The jar is sealed for 24 hours to give enough time to diffuse through plant tissue to the ethylene binding sites. 333 ul/L of ethylene gas is added to the jars. The jars are then resealed for 15 hours. This allows for maximal exposure to ethylene to measure effectiveness of the compounds. Firmness was recorded over a number of days. Disappearance of chlorophyll was determined by extracting chlorophyll from banana peels. Absorbance was measured in a spectrometer. For aqueous phase (salts) treatment, compounds were alternatively tested by mixing the solutions in acid and a detergent. The detergent, Tween 20, was used as a wetting agent. Solutions were then applied at various concentrations to the banana with a cotton swab. Bananas were then sealed in a jar and treated in the same manner as with the gas compound procedures described above. Chlorophyll was determined by the method of Arnon (Arnon, D I (1949) Copper content in isolated chloroplasts. Polyphenoloxidase in Beta vulgaris. Plant Physiology 24:1-15) or by using a reflective chlorophyll meter (Field Scout CM 1000 Spectronic Technologies Inc.). To extract chlorophyll, a measured area of peel was cut from representative areas of the peel and placed in boiling water for 3 minutes. The samples were then removed and blended with acetone. After standing overnight in the dark, they were filtered then concentrated in a hood and chlorophyll determined by the method of Arnon (1949) according to the procedures outlined by Holden (1965). Banana peel samples were cut and mixed with acetone to extract chlorophyll. Samples were made in an ether solution and absorbance measured at 663 nm.

CCCN(CCC)CC1=CC1 [N,N--Dipropyl (1-Cyclopropenylmethyl)amine]
minimum concentration required for protection of bananas (bananas [1]; 24 hour exposure, compound as a gas): 30 nl l^−I | Minimum Concentration (bananas [1]; amount of compound as a gas that would protect bananas by a 24 hour exposure): 30 nl/l | protection time (bananas [2]): 33 days | protection time (bananas [2]; 24 hour exposure at 10 times the minimum amount, daily ethylene challenge): 33 days | effect on petunia flowers exposed to ethylene (Petunia hybridia): appears to withstand the ethylene response | ethylene response of bananas after gas exposure (banana peel; FIG. 4, gaseous phase, 10 and 15 μL, after seven days): had already begun showing an ethylene response | Chlorophyll (% of control) (banana peel; acetic acid + 50 μl, 24 hours, ethylene (300 μl/l) 15 hours, 5 days after ethylene): 43 % of Control | Chlorophyll (% of control) (banana peel; acetic acid + 200 μl, 24 hours, ethylene (300 μl/l) 15 hours, 5 days after ethylene): 46 % of Control | Chlorophyll (% of control) (banana peel; applied as gas, ethylene 15 hours, readings at 5 days): 100 % of control | effectiveness of the carbonate salt compared with other acids (banana peel; banana peel, Table 4): as effective as the other acids | Chlorophyll (% of control) (banana peel; carbonic + 50 μl, 24 hours, ethylene (300 μl/l) 15 hours, 5 days after ethylene): 47 % of Control | Chlorophyll (% of control) (banana peel; carbonic acid + 200 μl, 24 hours, ethylene (300 μl/l) 15 hours, 5 days after ethylene): 48 % of Control | Chlorophyll (% of control) (banana peel; salt with 0.1 M acetic acid buffer (pH 4.75), swab to ½ banana, 24 hours, ethylene 15 hours, readings at 5 days): 33 % of control | Chlorophyll (% of control) (banana peel; salt with 0.1 M acetic acid, swab to ½ banana, 24 hours, ethylene 15 hours, readings at 5 days): 31 % of control | Chlorophyll (% of control) (banana peel; salt with 0.1 M formic acid, swab to ½ banana, 24 hours, ethylene 15 hours, readings at 5 days): 30 % of control | Chlorophyll (% of control) (banana peel; salt with phosphoric acid (pH 1.5), swab to ½ banana, 24 hours, ethylene 15 hours, readings at 5 days): 30 % of control
